Measured values: patent publication US20230115176A1 (Ra Pharmaceuticals, Inc., priority 2019, published 2023)
Values after ≈ are worked out from the molar mass of the structure shown. Like-named read-outs stand apart in the source and are kept apart here.

Legend:
Human C5 [1] = target: T1, Human C5 (Homo sapiens, UniProt P01031); experiment: Surface plasmon resonance (SPR), immobilized human C5 (Example 9, Table 18); assay type: binding
T1 construct: purchased Complement Technology
Source text: Morrison and Boyd in “Organic Chemistry”, 6th edition, Prentice Hall (1992)] and validated for proper structure by mass spectrometry.

purified human C5 = purified human C5 (Homo sapiens, UniProt P01031); experiment: Red blood cell (RBC) hemolysis assay, optical, absorbance 412 nm (Example 10, Table 19); assay type: cell-based; details: antibody-sensitized sheep erythrocytes, […] human C5 depleted sera
Chain of purified human C5 (P01031 19-1676): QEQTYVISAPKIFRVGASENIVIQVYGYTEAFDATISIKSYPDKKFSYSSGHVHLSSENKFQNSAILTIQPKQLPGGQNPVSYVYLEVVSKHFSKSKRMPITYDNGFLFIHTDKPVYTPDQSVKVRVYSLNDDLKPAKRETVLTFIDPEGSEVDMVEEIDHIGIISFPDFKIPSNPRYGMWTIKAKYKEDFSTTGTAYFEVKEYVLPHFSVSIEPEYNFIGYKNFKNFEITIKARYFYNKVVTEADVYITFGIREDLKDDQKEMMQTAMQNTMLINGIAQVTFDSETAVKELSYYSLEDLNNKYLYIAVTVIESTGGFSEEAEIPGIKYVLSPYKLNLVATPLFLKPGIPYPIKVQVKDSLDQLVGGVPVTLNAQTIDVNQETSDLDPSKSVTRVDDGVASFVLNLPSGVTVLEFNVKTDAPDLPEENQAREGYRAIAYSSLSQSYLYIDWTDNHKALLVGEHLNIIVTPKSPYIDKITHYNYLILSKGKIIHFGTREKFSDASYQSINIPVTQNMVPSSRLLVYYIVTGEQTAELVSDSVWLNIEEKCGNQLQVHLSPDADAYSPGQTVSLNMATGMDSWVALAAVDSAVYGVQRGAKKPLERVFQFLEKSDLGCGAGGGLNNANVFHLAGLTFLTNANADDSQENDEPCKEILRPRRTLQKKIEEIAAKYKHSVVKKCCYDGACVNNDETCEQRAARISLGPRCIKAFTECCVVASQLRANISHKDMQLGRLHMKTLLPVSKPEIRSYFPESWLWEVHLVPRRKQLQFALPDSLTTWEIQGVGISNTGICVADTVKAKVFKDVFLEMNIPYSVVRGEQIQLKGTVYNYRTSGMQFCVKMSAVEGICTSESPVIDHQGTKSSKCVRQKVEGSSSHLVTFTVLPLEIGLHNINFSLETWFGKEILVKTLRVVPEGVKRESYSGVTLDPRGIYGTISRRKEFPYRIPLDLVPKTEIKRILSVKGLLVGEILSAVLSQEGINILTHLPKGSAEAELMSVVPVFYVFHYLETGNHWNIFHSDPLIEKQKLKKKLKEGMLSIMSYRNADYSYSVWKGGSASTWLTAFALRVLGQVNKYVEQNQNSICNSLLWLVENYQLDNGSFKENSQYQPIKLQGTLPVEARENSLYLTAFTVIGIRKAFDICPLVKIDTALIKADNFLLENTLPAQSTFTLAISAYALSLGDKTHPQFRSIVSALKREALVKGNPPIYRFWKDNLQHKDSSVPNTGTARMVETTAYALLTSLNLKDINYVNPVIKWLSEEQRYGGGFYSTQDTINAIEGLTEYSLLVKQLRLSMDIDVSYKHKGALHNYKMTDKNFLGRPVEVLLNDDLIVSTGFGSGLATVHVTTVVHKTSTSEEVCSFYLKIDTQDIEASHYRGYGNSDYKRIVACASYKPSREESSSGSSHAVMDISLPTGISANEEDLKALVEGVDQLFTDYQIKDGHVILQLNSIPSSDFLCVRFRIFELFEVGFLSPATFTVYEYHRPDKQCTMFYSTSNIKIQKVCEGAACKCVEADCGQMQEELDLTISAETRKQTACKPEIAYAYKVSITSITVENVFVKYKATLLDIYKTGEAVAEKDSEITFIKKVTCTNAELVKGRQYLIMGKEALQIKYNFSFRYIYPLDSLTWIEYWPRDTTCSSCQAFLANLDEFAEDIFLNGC

[2] = Kinetic solubility in PBS pH 7.4, HPLC-UV (Example 21, Table 27); assay type: physicochemical; details: phosphate buffered saline, aqueous buffer, kinetic from dmso stock, 0.5 M PBS, shaken minimum 24 h at approximately 25° C., HPLC-UV 270 nm
Method: Compounds were analyzed for kinetic solubility values using a standard kinetic solubility assay format. First, test compounds were dissolved in DMSO (Aldrich Chemical Co., Milwaukee, Wis., USA) at a concentration of 0.010 mol/L and used to prepare standard calibrators in DMSO solution. 500.0 μM, 250.0 μM, 125.0 μM, 62.5 μM, 31.2 μM, and 15.6 μM standards were prepared in a Greiner UV-Star clear V-bottom 96-well plate (Greiner-Bio One, Germany) for generating a standard curve. Using Alfa Aesar's Sodium phosphate, 0.2 M buffer solution, pH 7.4 (Alfa Aesar, Haverhill, Mass., USA), aqueous phosphate buffered saline (PBS) was prepared by diluting with Milli-Q water for a final concentration of 0.05 M. The pH of the solution was adjusted to 7.4±0.1 using 0.1 M hydrochloric acid (Fisher Scientific Waltham, Mass., USA) or 0.1 M aqueous sodium hydroxide (Fisher Scientific Waltham, Mass., USA).
10 μL of 0.010 mol/L DMSO test compound stock solutions were pipetted to separate 1.5 mL centrifuge tubes in triplicate. To these tubes, 190 μl of 0.05 M PBS was added. Each tube was gently vortexed for 5 sec. The tubes were shaken for a minimum of 24 h at approximately 25° C. After shaking, the solutions were transferred to 0.5 mL centrifuge filter tubes (MilliporeSigma, Burlington, Mass., USA) and centrifuged at 10,000 rpm for 5 min. After centrifugation, supernatants were collected and used for compound concentration analysis.
Compound concentrations in each solution were determined using high pressure liquid chromatography (HPLC) with ultraviolet (UV) detection and comparison with external standards. For HPLC, a Waters Acquity CSH Phenyl-Hexyl column (2.1 mm×50 mm, 1.7 μm) was used together with a generic gradient method on a Waters H-class system equipped with a diode array detector: Solvent A=0.1% formic acid in water, Solvent B=0.1% formic acid in acetonitrile (MilliporeSigma, Burlington, Mass., USA), flow=0.65 mL/min, (t=0 min: 95% A-5% B, t=4.75 min: 0% A-100% B, t=4.85 min: 0% A-100% B, t=4.86 min: 95% A-5% B, t=5 min: 95% A-5% B). UV quantifications were performed at 270 nm. Solution concentrations were calculated using Microsoft Excel.

Human C5 [3] = target: T1, Human C5; experiment: Red blood cell (RBC) hemolysis assay, luminescent (Example 28, Table 32); assay type: cell-based; details: sheep EA cells, 1.5% C5-depleted human serum, 0.5 nM human C5, 1 hour at 37° C., luminescence (Table 32)
[4] = immobilized human C5, equilibrium dissociation constant, read-out: SPR C5 EQ KD
[5] = 0.5 nM purified human C5, absorbance 412 nm, read-out: RBC Hemolysis IC50

T1 sequence (P01031 19-1676): as above

Compound	Kd (Human C5 [1]; [4]) [µM]	IC50 (purified human C5; [5]) [µM]	other results
COc1ccc(OC)c(CNC(=O)Nc2ccc(OC)c(OCCCC(C)C)c2)c1 [Compound C5INH-0296]	0.02	0.68	–
COc1cc(F)ccc1CNC(=O)Nc1ccc(OC)c(OCCCC(C)C)c1 [Compound C5INH-0298]	0.55	0.269	–
COc1ccc(NC(=O)NCc2cccc(C(=N)N)c2)cc1OCCCC(C)C [Compound C5INH-0303]	0.71	2.94	–
COc1ccc(NC(=O)NCc2cccnc2OC)cc1OCCCC(C)C [Compound C5INH-0310]	0.04	0.203	–
COc1ccc(NC(=O)NCc2ccc(O)cc2O)cc1OCCCC(C)C [Compound C5INH-0311]	0.02	0.027	–
COc1ccc(NC(=O)NC(CO)c2cc(F)ccc2O)cc1OCCCC(C)C (stereo not shown) [Compound C5INH-0315]	0.05	0.0137	IC50 (purified human C5; 0.5 nM human C5, read-out: IC50): < 0.02 µM
COc1ccc(NC(=O)NC(CO)c2cccnc2OC)cc1OCCCC(C)C (stereo not shown) [Compound C5INH-0316]	0.058	0.06	–
COc1ccc(NC(=O)NCc2cccc3nc[nH]c23)cc1OCCCC(C)C [Compound C5INH-0317]	0.19	0.319	–
COc1ccc(NC(=O)NCc2ccc(OCCN(C)C)cc2)cc1OCCCC(C)C [Compound C5INH-0318]	0.313	0.251	–
COc1ccc(NC(=O)NCc2cccc(CN3CCCC3=O)c2)cc1OCCCC(C)C [Compound C5INH-0323]	0.731	1.92	–
COc1ccc(NC(=O)NCc2c(F)cccc2OC)cc1OCCCC(C)C [Compound C5INH-0326]	0.26	0.784	–
COc1ccc(NC(=O)NCc2cncs2)cc1OCCCC(C)C [Compound C5INH-0329]	3.2	4.01	–
COc1ccc(NC(=O)NCc2ccc3c(c2)OCO3)cc1OCCCC(C)C [Compound C5INH-0330]	2.9	2.66	–
COc1ccc(NC(=O)NCc2ccnc(N)c2)cc1OCCCC(C)C [Compound C5INH-0333]	0.098	0.442	–
COCCOc1ccccc1CNC(=O)Nc1ccc(OC)c(OCCCC(C)C)c1 [Compound C5INH-0335]	0.18	2.09	–
COc1ccc(NC(=O)N[C@@H](CO)c2ccccc2)cc1NCCCC(C)C [Compound C5INH-0336]	0.164	0.473	–
COc1ccc(NC(=O)NCc2ccccc2OCCC2CCOC2)cc1OCCCC(C)C (stereo not shown) [Compound C5INH-0338]	0.195	4.37	–
CCOc1ccccc1CNC(=O)Nc1ccc(OC)c(OCCCC(C)C)c1 [Compound C5INH-0339]	0.052	0.878	–
COc1ccc(NC(=O)NCc2ccc3c(c2)OCCO3)cc1OCCCC(C)C [Compound C5INH-0340]	0.075	0.992	–
COc1ccc(NC(=O)NCc2cccc(CO)c2)cc1OCCCC(C)C [Compound C5INH-0342]	0.18	1.54	–

Compound	Kd (Human C5 [1]; [4]) [µM]	IC50 (purified human C5; [5]) [µM]	other results
COc1ccc(NC(=O)NCc2ccccc2N)cc1OCCCC(C)C [Compound C5INH-0343]	0.8	3.04	–
COc1ccc(CNC(=O)Nc2ccc(OC)c(OCCCC(C)C)c2)c(OC)c1 [Compound C5INH-0348]	0.0102	0.0725	Kd (Human C5 [1]; SPR, human C5 immobilized, read-out: equilibrium dissociation constant for interaction with C5): < 0.02 µM
COc1ccc(NC(=O)N[C@@H](CO)c2ccccc2)cc1OCCc1cccs1 [Compound C5INH-0349]	1.21	1.5	–
COc1ccc(NC(=O)N[C@@H](CO)c2ccccc2)cc1OCCC1CCCCC1 [Compound C5INH-0350]	0.16	0.653	–
COc1ccc(C(CO)NC(=O)Nc2ccc(OC)c(OCCCC(C)C)c2)cc1OC (stereo not shown) [Compound C5INH-0352]	0.7	2.95	–
COc1ccc(NC(=O)NC(CO)c2ccc3[nH]ccc3c2)cc1OCCCC(C)C (stereo not shown) [Compound C5INH-0353]	0.58	0.328	–
COc1cc(CC(=O)O)c(NC(=O)N[C@H](CO)c2ccccc2)cc1OCCCC(C)C [Compound C5INH-0355]	0.441	2.93	–
CCCCCOc1cc(N2CC[C@H](C)N(Cc3ccnc4c3c(Cl)cn4CC(=O)N3CCO[C@H](COC)C3)C2=O)ccc1OC [SC0127]	–	–	solubility kinetic [2]: < 10 µM; IC50 (Human C5 [3]): 0.0017 µM
COc1cc(CC(=O)N2CCN(C)CC2)ccc1CN1C(=O)N(c2ccc(OC)c(OCCCC3CC3)c2)CC[C@@H]1C [SC0137]	–	–	solubility kinetic [2]: 275 µM (≈ 159 µg/mL); IC50 (Human C5 [3]): 0.0018 µM
COc1cc(CC(=O)N2CCNC(=O)C2)ccc1CN1CC(C)CN(c2ccc(OC)c(OCCCC3CC3)c2)C1=O (stereo not shown) [SC0158]	–	–	solubility kinetic [2]: 16 µM (≈ 9.26 µg/mL); IC50 (Human C5 [3]): 0.0027 µM
COc1cc(CCN2CCS(=O)(=O)CC2)ccc1CN1C(=O)N(c2ccc(OC)c(OCCCC3CC3)c2)CC[C@@H]1C [SC0162]	–	–	solubility kinetic [2]: < 10 µM; IC50 (Human C5 [3]): 0.0028 µM
CCCCCOc1cc(N2CC[C@@H](C)N(Cc3cccc4[nH]cc(Cl)c34)C2=O)ccc1OC [SC0167]	–	–	solubility kinetic [2]: < 10 µM; IC50 (Human C5 [3]): 0.0032 µM
CCCCCOc1cc(N2CC(C(N)=O)CN(Cc3ccc(CC(=O)N(C)C)cc3OC)C2=O)ccc1OC (stereo not shown) [SC0204]	–	–	solubility kinetic [2]: 465 µM (≈ 251 µg/mL); IC50 (Human C5 [3]): 0.0109 µM
CCCCCOc1cc(N2CC[C@@H](C)N(Cc3cccc4c3ccn4CC(=O)O)C2=O)ccc1OC [SC0227]	–	–	IC50 (Human C5 [3]): 0.135 µM
CCCCCOc1cc(N2CC(C)CN(Cc3ccc(C#N)cc3OC)C2=O)ccc1OC (stereo not shown) [SC0228]	–	–	IC50 (Human C5 [3]): 0.211 µM
CCCCCOc1cc(N2CC(COCc3ccccc3)CN(Cc3ccc(CC(=O)O)cc3OC)C2=O)ccc1OC (stereo not shown) [SC0229]	–	–	IC50 (Human C5 [3]): 0.371 µM
CCCCCOc1cc(N2CC[C@@H](C)N(Cc3cccc4c3ccn4S(=O)(=O)c3ccc(C)cc3)C2=O)ccc1OC [SC0230]	–	–	IC50 (Human C5 [3]): 0.703 µM
CCCCCOc1cc(N2CC[C@@H](C)NC2=O)ccc1OC [SC0231]	–	–	IC50 (Human C5 [3]): 2.66 µM
CCCCCOc1cc(N2CC(COCc3ccccc3)CN(Cc3ccc(Br)cc3OC)C2=O)ccc1OC (stereo not shown) [SC0232]	–	–	IC50 (Human C5 [3]): 3.12 µM

Further lines, with some results ahead:

Kd (Human C5 [1]; [4]) [µM]	Compound	IC50 (purified human C5; [5]) [µM]	other results
0.059	COc1ccc(NC(=O)NC(CO)c2cccc3[nH]ccc23)cc1OCCCC(C)C (stereo not shown) [Compound C5INH-0356]	0.111	–
0.052	COc1ccc(NC(=O)NCc2ccnc3c2ccn3C)cc1OCCCC(C)C [Compound C5INH-0361]	2.35	–
0.082	COc1ccc(NC(=O)NC(CO)c2cccc3[nH]ncc23)cc1OCCCC(C)C (stereo not shown) [Compound C5INH-0366]	0.762	–
0.102	COc1ccc(NC(=O)N[C@@H](CO)c2ccccc2)cc1C(O)CCCC(C)C (stereo partly shown) [Compound C5INH-0367]	0.475	–
0.104	COc1ccc(NC(=O)NCc2cccc(N3CCN(C)CC3)c2)cc1OCCCC(C)C [Compound C5INH-0369]	0.592	–
0.67	COc1ccc(NC(=O)NC(CO)c2cccc(CNC(=O)OC(C)(C)C)c2)cc1OCCCC(C)C (stereo not shown) [Compound C5INH-0372]	3.27	–
0.293	COc1ccc(NC(=O)NC(CO)c2cccc(CN)c2)cc1OCCCC(C)C (stereo not shown) [Compound C5INH-0373]	1.52	–
0.047	COc1ccc(NC(=O)NCc2ccnc3c2ccn3CCN2CCCC2)cc1OCCCC(C)C [Compound C5INH-0377]	0.156	–
0.499	COc1ccc(NC(=O)NC(CO)c2cccc(CNCCN3CCOCC3)c2)cc1OCCCC(C)C (stereo not shown) [Compound C5INH-0379]	3.63	–
0.12	COCCOc1cc(CNC(=O)Nc2ccc(OC)c(OCCCC(C)C)c2)ccn1 [Compound C5INH-0381]	1.04	–
0.181	COc1ccc(NC(=O)NCc2ccnc(OCCN)c2)cc1OCCCC(C)C [Compound C5INH-0382]	0.312	–
0.102	COc1ccc(NC(=O)NCc2ccnc(OCCN(C)C)c2)cc1OCCCC(C)C [Compound C5INH-0383]	0.293	–
0.81	COCCOCCOc1cc(CNC(=O)Nc2ccc(OC)c(OCCCC(C)C)c2)ccn1 [Compound C5INH-0384]	2.18	–
